Strand notation (5' to 3'): a small letter for the sugar, then the base; units joined by * are phosphorothioate-linked, units joined directly phosphodiester-linked; [ ] holds rarer units or linkages, { } end groups; capitals alone tell only the bases. e = 2'-O-(2-methoxyethyl) (MOE); [5mC] = 5-methylcytosine; d = 2'-deoxy (DNA)
What was measured:
[1] = design: species or system CD1 mice; settings: mouse, in vivo, sc, 50 mg/kg
Experimental: The concentration of the full-length oligonucleotide was measured. The method used is a modification of previously published methods (Leeds et al., 1996; Geary et al., 1999) which consist of a phenol-chloroform (liquid-liquid) extraction followed by a solid phase extraction. An internal standard (ISIS 355868, a 27-mer 2′-O-methoxyethyl modified phosphorothioate oligonucleotide, […], designated herein as SEQ ID NO: 270) was added prior to extraction. […] The results are presented in Table 85 expressed as μg/g liver tissue.

Factor 11 mRNA = Factor 11 mRNA in cynomolgus monkey liver, day 85 (Example 45); assay type: in vivo; settings: cynomolgus monkeys, s.c. escalating doses 5-25 mg/kg over 12 weeks
Experimental: (§1) Groups, each consisting of two male and three female monkeys, were injected subcutaneously with ISIS 416838, ISIS 416850, ISIS 416858, ISIS 416864, or ISIS 417002 in escalating doses. Antisense oligonucleotide was administered to the monkeys at 5 mg/kg three times per a week for week 1; 5 mg/kg twice per week for weeks 2 and 3; 10 mg/kg three times per week for week 4; 10 mg/kg twice per week for weeks 5 and 6; 25 mg/kg three times per week for week 7; and 25 mg/kg twice per week for weeks 8, 9, 10, 11, and 12. One control group, consisting of two male and three female monkeys, was injected subcutaneously with PBS according to the same dosing regimen. An additional experimental group, consisting of two male and three female monkeys, was injected subcutaneously with ISIS 416850 in a chronic, lower dose regimen. Antisense oligonucleotide was administered to the monkeys at 5 mg/kg three times per week for week 1; 5 mg/kg twice per week for week 2 and 3; 10 mg/kg three times per week for week 4; and 10 mg/kg twice per week for weeks 5 to 12. Body weights were measured weekly. Blood samples were collected 14 days and 5 days before the start of treatment and subsequently once per week for Factor 11 protein activity analysis in plasma, fibrinogen measurement, PT and aPTT measurements, bleeding times, and measurement of various hematologic factors. On day 85, the monkeys were euthanized by exsanguination while under deep anesthesia, and organs harvested for further analysis.
On day 85, RNA was extracted from liver tissue for real-time PCR analysis of Factor 11 using primer probe set LTS00301 (forward primer sequence […], designated herein as SEQ ID NO 271; reverse primer sequence […], designated herein as SEQ ID NO: 272; and probe sequence TGCAGGCACAGCATCCCAGTGTTCTX, designated herein as SEQ ID NO. 273). Results are presented as percent inhibition of Factor 11, relative to PBS control.

blood coagulation = experiment: PT and aPTT assay in cynomolgus monkeys (Example 45); assay type: in vivo; settings: escalating dose regimen, platelet poor plasma
Experimental: as §1
Blood samples were collected in tubes containing sodium citrate. PT and aPTT were determined in duplicate with an ACL 9000 coagulation instrument (Instrumentation Laboratory, Italy). The results were interpolated on a standard curve of serial dilutions citrated control monkey plasma tested to give a reported result in percent normal.
Prothrombin Time (PT) and Activated Partial Thromboplastin Time (aPTT) were measured using platelet poor plasma (PPP) from monkeys treated with ISIS oligonucleotides. PT and aPTT values are provided in Tables 116 and 117 and are reported as International Normalized Ratio (INR) values. INR values for PT and aPTT were determined by dividing the PT or aPTT value for each experimental group by the PT or aPTT for the PBS treated group. This ratio was then raised to the power of the International Sensitivity Index (ISI) of the tissue factor used. The ISIS oligonucleotide, ISIS 416850, given with the chronic dose regimen is distinguished from the other oligonucleotides with an asterisk (*).

[2] = Tolerability in Sprague-Dawley rats: hematology assays (Example 44); assay type: in vivo; settings: 50 mg/kg s.c. twice per week for 6 weeks, blood

412223 (antisense ACAGTTTCTGGCAGGCCTCG; 5-10-5 MOE gapmer, further chemistry not given here) [compound 412223]
Half-Life in the liver [1]: 21.9 days

412224 (antisense GCATTGGTGCACAGTTTCTG; 5-10-5 MOE gapmer, further chemistry not given here) [compound 412224]
Half-Life in the liver [1]: 16.6 days

412225 (antisense GCAGCGGACGGCATTGGTGC; 5-10-5 MOE gapmer, further chemistry not given here) [compound 412225]
Half-Life in the liver [1]: 20.7 days

413482 (antisense GGACGGCATTGGTGCACAGT; 5-10-5 MOE gapmer, further chemistry not given here) [compound 413482]
Half-Life in the liver [1]: 19.5 days

416838 (antisense GCAACCGGGATGATGAGTGC; 5-10-5 gapmer, further chemistry not given here) [compound 416838]
% inhibition of Factor 11 mRNA in the cynomolgus monkey liver relative to the PBS control (Factor 11 mRNA): 37%

416856 (antisense GGCATTGGTGCACAGTTTCT; 5-10-5 gapmer, further chemistry not given here) [compound 416856]
Half-Life in the liver [1]: 19.2 days

ISIS 416838: MOE gapmer, nucleobases 1018 to 1042 of SEQ ID NO: 1 (Table 6) (antisense GCAACCGGGATGATGAGTGC; MOE gapmer, wing and gap sizes not given here)
PT ratio (INR) (blood coagulation; day 8): 1.03
aPTT ratio (INR) (blood coagulation; day 8): 1.07
PT ratio (INR) (blood coagulation; day 15): 1.03
aPTT ratio (INR) (blood coagulation; day 15): 1.05
PT ratio (INR) (blood coagulation; day 22): 1.07
aPTT ratio (INR) (blood coagulation; day 22): 1.20
PT ratio (INR) (blood coagulation; day 29): 1.03
aPTT ratio (INR) (blood coagulation; day 29): 1.19
PT ratio (INR) (blood coagulation; day 36): 1.05
aPTT ratio (INR) (blood coagulation; day 36): 1.20
PT ratio (INR) (blood coagulation; day 43): 1.03
aPTT ratio (INR) (blood coagulation; day 43): 1.18
PT ratio (INR) (blood coagulation; day 50): 1.02
aPTT ratio (INR) (blood coagulation; day 50): 1.25
PT ratio (INR) (blood coagulation; day 57): 1.04
aPTT ratio (INR) (blood coagulation; day 57): 1.21
PT ratio (INR) (blood coagulation; day 64): 1.04
aPTT ratio (INR) (blood coagulation; day 64): 1.18
PT ratio (INR) (blood coagulation; day 71): 1.02
aPTT ratio (INR) (blood coagulation; day 71): 1.15
PT ratio (INR) (blood coagulation; day 78): 1.04
aPTT ratio (INR) (blood coagulation; day 78): 1.19
PT ratio (INR) (blood coagulation; day 85): 1.05
aPTT ratio (INR) (blood coagulation; day 85): 1.22
PT ratio (INR) (blood coagulation; day −5): 1.00
aPTT ratio (INR) (blood coagulation; day −5): 1.00
PT ratio (INR) (blood coagulation; day −14): 1.00
aPTT ratio (INR) (blood coagulation; day −14): 1.00

ISIS 417002: MOE gapmer, nucleobases 1275 to 1318 of SEQ ID NO: 1 (Table 8) (antisense GGTGCACAGTTTCTGGCAGG; MOE gapmer, wing and gap sizes not given here)
PT ratio (INR) (blood coagulation; day 8): 1.02
aPTT ratio (INR) (blood coagulation; day 8): 1.05
PT ratio (INR) (blood coagulation; day 15): 1.04
aPTT ratio (INR) (blood coagulation; day 15): 1.03
PT ratio (INR) (blood coagulation; day 22): 1.04
aPTT ratio (INR) (blood coagulation; day 22): 1.16
PT ratio (INR) (blood coagulation; day 29): 1.01
aPTT ratio (INR) (blood coagulation; day 29): 1.11
PT ratio (INR) (blood coagulation; day 36): 1.05
aPTT ratio (INR) (blood coagulation; day 36): 1.18
PT ratio (INR) (blood coagulation; day 43): 1.03
aPTT ratio (INR) (blood coagulation; day 43): 1.06
PT ratio (INR) (blood coagulation; day 50): 0.99
aPTT ratio (INR) (blood coagulation; day 50): 1.18
PT ratio (INR) (blood coagulation; day 57): 1.03
aPTT ratio (INR) (blood coagulation; day 57): 1.22
PT ratio (INR) (blood coagulation; day 64): 1.03
aPTT ratio (INR) (blood coagulation; day 64): 1.11
PT ratio (INR) (blood coagulation; day 71): 0.99
aPTT ratio (INR) (blood coagulation; day 71): 1.16
PT ratio (INR) (blood coagulation; day 78): 1.02
aPTT ratio (INR) (blood coagulation; day 78): 1.18
PT ratio (INR) (blood coagulation; day 85): 1.02
aPTT ratio (INR) (blood coagulation; day 85): 1.20
PT ratio (INR) (blood coagulation; day −5): 1.00
aPTT ratio (INR) (blood coagulation; day −5): 1.00
PT ratio (INR) (blood coagulation; day −14): 1.00
aPTT ratio (INR) (blood coagulation; day −14): 1.00

ISIS 449707: 3-8-3, 4-8-4, 2-10-2, 3-10-3 or 4-10-4 MOE microwalk gapmer (Table 46) (antisense e[5mC]*eA*e[5mC]*eA*dG*dT*dT*dT*d[5mC]*dT*dG*dG*e[5mC]*eA*eG*eG)
Platelets [2]: 722 nL⁻¹
RBC [2]: 6.0 pL⁻¹
WBC [2]: 20 nL⁻¹
hematocrit [2]: 40%
hemoglobin [2]: 12.0 g/dL
lymphocytes [2]: 91%
monocytes [2]: 2%
neutrophils [2]: 6%

ISIS 449708: 3-8-3, 4-8-4, 2-10-2, 3-10-3 or 4-10-4 MOE microwalk gapmer (Table 46) (antisense eA*e[5mC]*eA*dG*dT*dT*dT*d[5mC]*dT*dG*dG*e[5mC]*eA*eG)
Platelets [2]: 925 nL⁻¹
RBC [2]: 6.6 pL⁻¹
WBC [2]: 22 nL⁻¹
hematocrit [2]: 40%
hemoglobin [2]: 12.2 g/dL
lymphocytes [2]: 92%
monocytes [2]: 2%
neutrophils [2]: 6%

ISIS 449709: 3-8-3, 4-8-4, 2-10-2, 3-10-3 or 4-10-4 MOE microwalk gapmer (Table 46) (antisense eG*e[5mC]*eA*e[5mC]*dA*dG*dT*dT*dT*d[5mC]*dT*dG*dG*d[5mC]*eA*eG*eG*e[5mC])
Platelets [2]: 631 nL⁻¹
RBC [2]: 6.9 pL⁻¹
WBC [2]: 14 nL⁻¹
hematocrit [2]: 41%
hemoglobin [2]: 12.6 g/dL
lymphocytes [2]: 91%
monocytes [2]: 3%
neutrophils [2]: 5%

ISIS 449710: 3-8-3, 4-8-4, 2-10-2, 3-10-3 or 4-10-4 MOE microwalk gapmer (Table 46) (antisense e[5mC]*eA*e[5mC]*dA*dG*dT*dT*dT*d[5mC]*dT*dG*dG*d[5mC]*eA*eG*eG)
Platelets [2]: 509 nL⁻¹
RBC [2]: 6.3 pL⁻¹
WBC [2]: 13 nL⁻¹
hematocrit [2]: 41%
hemoglobin [2]: 12.5 g/dL
lymphocytes [2]: 91%
monocytes [2]: 2%
neutrophils [2]: 6%

ISIS 449711: 3-8-3, 4-8-4, 2-10-2, 3-10-3 or 4-10-4 MOE microwalk gapmer (Table 46) (antisense eA*e[5mC]*dA*dG*dT*dT*dT*d[5mC]*dT*dG*dG*d[5mC]*eA*eG)
Platelets [2]: 919 nL⁻¹
RBC [2]: 6.4 pL⁻¹
WBC [2]: 13 nL⁻¹
hematocrit [2]: 43%
hemoglobin [2]: 12.6 g/dL
lymphocytes [2]: 90%
monocytes [2]: 2%
neutrophils [2]: 7%
